Measured values reported in patent US20020198510A1, “Method for nasal application of a medicinal substance” (priority 2001, published 2002).
“Also recorded” adds a separate entry of the source.

Assays:
[1] = design: species or system chinchillas; settings: in vivo
Experimental: (§1) To show the distribution of liquid administered through the nose, Evans Blue Dye (0.3%) was administered through a micropipette tip into the nose of mice and chinchillas at various doses, at various levels of sedation or anesthesia, and with the animals in various positions.

[2] = Evans Blue Dye distribution after administration into the nose of mice; type: in vivo; design: key to Dye in Stomach / Dye in Lung: -: no dye is present; traces: minimal amounts are present when examined with the unaided eye but that do not clearly show on photographs; yes: dye is clearly visible; +: dye is clearly visible; ++: heavy dye presence; settings: for Dye in Larynx / Dye in Nasal Cavity / Dye in Nose Skin / Dye in Intestine / Dye in Oral Cavity / Dye in Stomach / Dye in Esophagus Lower / Dye in Esophagus Upper / Dye in Trachea Lower / Dye in Trachea Upper / Dye in Lung: 60 min to sacrifice
Experimental: as §1

[3] = Dye 10 μl single dose, Supine/Supine, anesthesia 200 μl (heavy)
[4] = Dye 10 μl single dose, Upright/Not held, 0 μl (Alert)
[5] = Dye 10 μl single dose, Upright/Not held, anesthesia 200 μl (heavy)
[6] = Dye 20 μl single dose, Supine/Supine, anesthesia 200 μl (heavy)
[7] = Dye 20 μl single dose, Upright/Not held, anesthesia 200 μl (heavy)
[8] = Dye 20 μl, 2 μl/nare at 2 min interval, Supine/Supine, anesthesia 200 μl (heavy)
[9] = Dye 20 μl, 2 μl/nare at 5 min interval, Supine/Supine, anesthesia 200 μl (heavy)
[10] = Dye 20 μl, 2 μl/nare at t = 0, 2, 7, 9 and 11 min, Supine/Supine, anesthesia 200 μl (heavy)
[11] = Dye 30 μl single dose, Prone/Not held, 0 μl (Alert)
[12] = Dye 30 μl single dose, Supine/Supine, anesthesia 200 μl (heavy)
[13] = Dye 30 μl single dose, Upright/Not held, 0 μl (Alert)
[14] = Dye 30 μl single dose, Upright/Not held, anesthesia 120 μl (Mod)
[15] = Dye 30 μl single dose, Upright/Not held, anesthesia 200 μl (heavy)
[16] = Dye 30 μl, 1 drop/5 sec interval, Upright/Not held, anesthesia 200 μl (heavy)

Compound: Cc1cc(-c2ccc(/N=N/c3ccc4c(S(=O)(=O)[O-])cc(S(=O)(=O)[O-])c(N)c4c3O)c(C)c2)ccc1/N=N/c1ccc2c(S(=O)(=O)[O-])cc(S(=O)(=O)[O-])c(N)c2c1O.[Na+].[Na+].[Na+].[Na+] [Dye, Evans Blue Dye]
- Dye retention in nasal passages and sinuses by alertness [1]: more dye is retained in the nasal passages and sinuses when administered to an alert chinchilla
- Dye retention in nasal passages and sinuses by position [1]: more dye is retained in the nasal passages and sinuses in the chinchilla, when the dye is administered in the prone position than when administered in the supine position
- Dye in the stomach ([2]; 5 μl and 2 μl increments (Table 8)): reduced dye in the stomach at lower incremental doses than larger incremental doses
- Dye in Larynx [2, 3]: Yes
- Dye in Nasal Cavity [2, 3]: Yes
- Dye in Nose Skin [2, 3]: Yes
- Dye in Intestine [2, 4]: Yes
- Dye in Larynx [2, 4]: Yes
- Dye in Nasal Cavity [2, 4]: Yes
- Dye in Oral Cavity [2, 4]: Yes
- Dye in Stomach [2, 4]: + and Traces
- Dye in Esophagus Lower [2, 5]: Traces; also recorded: Yes/Yes
- Dye in Esophagus Upper [2, 5]: Traces/; also recorded: Yes/Yes
- Dye in Larynx [2, 5]: Yes
- Dye in Nasal Cavity [2, 5]: Yes
- Dye in Nose Skin [2, 5]: Yes
- Dye in Oral Cavity [2, 5]: Yes
- Dye in Stomach [2, 5]: Traces and +
- Dye in Trachea Lower [2, 5]: Traces
- Dye in Trachea Upper [2, 5]: Traces/
- Dye in Esophagus Upper [2, 6]: Traces
- Dye in Larynx [2, 6]: Yes
- Dye in Nasal Cavity [2, 6]: Yes
- Dye in Nose Skin [2, 6]: Yes
- Dye in Oral Cavity [2, 6]: Yes
- Dye in Trachea Lower [2, 6]: Traces
- Dye in Trachea Upper [2, 6]: Traces/
- Dye in Esophagus Lower [2, 7]: Yes/Yes
- Dye in Esophagus Upper [2, 7]: Yes/Yes
- Dye in Larynx [2, 7]: Yes
- Dye in Nasal Cavity [2, 7]: Yes
- Dye in Nose Skin [2, 7]: Yes
- Dye in Oral Cavity [2, 7]: Yes
- Dye in Stomach [2, 7]: +
- Dye in Esophagus Lower [2, 8]: Yes/Yes
- Dye in Esophagus Upper [2, 8]: Yes/Yes
- Dye in Larynx [2, 8]: Yes
- Dye in Nasal Cavity [2, 8]: Yes
- Dye in Nose Skin [2, 8]: Yes
- Dye in Oral Cavity [2, 8]: Yes
- Dye in Stomach [2, 8]: +
- Dye in Esophagus Upper [2, 9]: Yes
- Dye in Larynx [2, 9]: Yes
- Dye in Nasal Cavity [2, 9]: Yes
- Dye in Nose Skin [2, 9]: Yes
- Dye in Oral Cavity [2, 9]: Yes
- Dye in Larynx [2, 10]: Yes
- Dye in Nasal Cavity [2, 10]: Yes
- Dye in Nose Skin [2, 10]: Yes
- Dye in Intestine [2, 11]: Yes
- Dye in Larynx [2, 11]: Traces
- Dye in Nasal Cavity [2, 11]: Yes
- Dye in Oral Cavity [2, 11]: Traces
- Dye in Stomach [2, 11]: ++ and +
- Dye in Esophagus Lower [2, 12]: Yes/Yes
- Dye in Esophagus Upper [2, 12]: Yes/Yes
- Dye in Larynx [2, 12]: Yes
- Dye in Nasal Cavity [2, 12]: Yes
- Dye in Nose Skin [2, 12]: Yes
- Dye in Oral Cavity [2, 12]: Yes
- Dye in Trachea Lower [2, 12]: Yes/Yes
- Dye in Trachea Upper [2, 12]: Yes/Yes
- Dye in Intestine [2, 13]: Yes
- Dye in Larynx [2, 13]: Yes
- Dye in Nasal Cavity [2, 13]: Yes
- Dye in Nose Skin [2, 13]: Yes
- Dye in Oral Cavity [2, 13]: Yes
- Dye in Stomach [2, 13]: ++ and +
- Dye in Esophagus Lower [2, 14]: Yes/Yes
- Dye in Esophagus Upper [2, 14]: Yes/Yes
- Dye in Larynx [2, 14]: Yes
- Dye in Lung [2, 14]: Traces
- Dye in Nasal Cavity [2, 14]: Yes
- Dye in Nose Skin [2, 14]: Yes
- Dye in Oral Cavity [2, 14]: Yes
- Dye in Stomach [2, 14]: ++ and +
- Dye in Trachea Lower [2, 14]: Yes/Yes
- Dye in Trachea Upper [2, 14]: Yes/Yes
- Dye in Esophagus Lower [2, 15]: Yes/Yes
- Dye in Esophagus Upper [2, 15]: Yes/Yes
- Dye in Larynx [2, 15]: Yes
- Dye in Lung [2, 15]: +
- Dye in Nasal Cavity [2, 15]: Yes
- Dye in Nose Skin [2, 15]: Yes
- Dye in Oral Cavity [2, 15]: Yes
- Dye in Trachea Lower [2, 15]: Yes/Yes
- Dye in Trachea Upper [2, 15]: Yes/Yes
- Dye in Esophagus Lower [2, 16]: Yes/Yes
- Dye in Esophagus Upper [2, 16]: Yes/Yes
- Dye in Larynx [2, 16]: Yes
- Dye in Nasal Cavity [2, 16]: Yes
